Assay results: PubChem BioAssay AID1996
Converted amounts (≈) assume the structure as drawn.

Conditions: buffer; pH 7.4; 200.0 µM

| Structure (SMILES) | solubility kinetic [µg/mL] |
| --- | --- |
| COc1cc(NC(c2ccccc2)c2ccccc2)cc(OC)c1OC | > 52.4 |
| OC(CN1CCN(c2ccccc2Cl)CC1)c1ccccc1 (stereo not drawn) | 41.4 (≈ 131 µM) |
| CCOc1ncccc1C(=O)OCC(=O)Nc1cc(C(C)(C)C)ccc1OC | 1.5 (≈ 3.88 µM) |
| CC1CC(O)(CC(O)(c2ccccc2)c2ccccc2)C(C)CN1C (stereo not drawn) | > 50.9 |
| O=C(COC(=O)CNC(=O)c1cc(Cl)cc([N+](=O)[O-])c1)NC(=O)NCc1ccco1 | 61.7 (≈ 141 µM) |
| O=C(COC(=O)c1cccc(OC(F)F)c1)Nc1ncccn1 | 30.2 (≈ 93.4 µM) |
| CSCCC1NC(=O)N(CC(=O)Nc2ccc3c(c2)OCCO3)C1=O (stereo not drawn) | > 54.8 |
| O=C(O)CSc1nnc(-c2cccc(S(=O)(=O)N3CCOCC3)c2)n1-c1ccc(F)cc1 | > 71.8 |
| S=C(Nc1ccccc1)N1CCC(Cc2ccccc2)CC1 | 14.5 (≈ 46.7 µM) |
| Cc1cc(NC(=O)CSc2nnc(-c3ccco3)n2C)no1 | > 47.9 |
| CC(Oc1ccccc1)C(=O)NC1CCCCCCC1 (stereo not drawn) | > 41.3 |
| CCN(CC)S(=O)(=O)c1ccc(=O)[nH]c1 | > 34.5 |
| COc1ccc2c(c1)C(=O)N(CCc1ccc(S(=O)(=O)NC(=O)NC3CCCCC3)cc1)C(=O)C2(C)C | 69.5 (≈ 132 µM) |
| Cc1c(N)c(C)c([N+](=O)[O-])c(C)c1[N+](=O)[O-] | 6.9 (≈ 30.6 µM) |
| Nc1nccnc1C(=O)OCC(=O)NNC(=O)c1ccccc1 | > 47.3 |
| CCC(=O)Nc1c(-c2ccc(C)cc2)c(=O)c2ccccc2n1C | 20.8 (≈ 64.9 µM) |
| O=C(Nc1cccc(F)c1)N1CCN(C(=O)c2ccco2)CC1 | > 47.6 |

| Structure (SMILES) | solubility kinetic [µg/mL] |
| --- | --- |
| Cc1c(C)n(CCc2ccccc2)c2ncnc(NCCCN(C)C)c12 | > 52.7 |
| Cc1ccc(C(=O)NCCCNC(=O)c2ccccn2)cc1 | > 44.6 |
| Cc1ccc(OCc2cc(C(=O)N3CCCC3)no2)cn1 | > 43.1 |
| Cc1ccc(SCC(=O)NCC2CCCO2)cc1 (stereo not drawn) | > 39.8 |
| c1ccc2oc(-c3csc(N4CCOCC4)n3)cc2c1 | 4.7 (≈ 16.4 µM) |
| Cc1c(Cl)cnc(NC(=O)COC(=O)C2CC2)c1Cl | > 45.5 |
| O=S(=O)(Nc1cccnc1Cl)c1ccc(F)cc1 | > 43 |
| O=C(Nc1ccc2oc(=O)ccc2c1)c1ccccc1[N+](=O)[O-] | 5.7 (≈ 18.4 µM) |
| COc1ccc(S(=O)(=O)/C(C#N)=C/Nc2cccc(F)c2)cc1 | < 0.4 |
| O=C(C(=O)N1CCOCC1)c1cn(Cc2ccccc2)c2ccccc12 | 6.4 (≈ 18.4 µM) |
| COCCCNC(=O)C(=O)NC1CCCCC1C (stereo not drawn) | > 38.5 |
| CC1CC(C)(C)NC(=S)N1CC(=O)NCc1ccc(F)cc1 (stereo not drawn) | 41.5 (≈ 128 µM) |
| Cc1ccc(C(=O)Nc2ccc3ccccc3n2)cc1 | 2.3 (≈ 8.77 µM) |
| CCOc1ccc(N=Cc2ccc3ccccc3c2)cc1 | 1.5 (≈ 5.45 µM) |
| Cc1c(C(=O)O)oc2ccc(S(=O)(=O)N3CCCC3)cc12 | > 46.4 |
| CCOC(=O)c1cc(COc2cc(Cl)cc(Cl)c2)on1 | < 0.7 |
